Columns and labels:
NADPH oxidase [1] = assay: NADPH-induced superoxide production by cellular NADPH oxidase, lucigenin chemiluminescence, human aortic endothelial cells; format: cell-based; conditions: for inhibition of NADPH oxidase superoxide production: 300 nM to 20 μM for 1 h
Description: (§1) Human cell cultures derived from aortic endothelium were incubated with NADPH to induce superoxide production by cellular NADPH oxidase. Superoxide production was quantified by lucigenin chemiluminescence. Lucigenin is a specific detector of superoxide. […] Phycocyanobilin (PCB, FIG. 1A) or biliverdin (BVD, FIG. 1B) were added to the NADPH-treated cell cultures in concentrations ranging from 300 nM to 20 μM. Biliverdin is another known inhibitor of NADPH oxidase.
(§2) Human aortic endothelial cells were purchased from Clonetics (East Rutherford, N.J.). The endothelial cell were cultured in endothelial cell basal medium (Clonetics) supplemented with hFGF-B, VEGF, IGF-1, ascorbic acid hEGF, hydrocortisone and 2% fetal calf serum. The cells from 2nd to 5th passages were used in the experiments. Cellular production of superoxide anion was determined by the lucigenin method. For the experiments, cells were detached with trypsin/EDTA and resuspended in modified HEPES buffer containing 140 mM NaCl, 5 mM KCl, 0.8 mM MgCl2, 1.8 mM CaCl2, 1 mM Na2HPO4, 25 mM HEPES, and 1% glucose (pH7.2), and incubated with or without various concentrations of phycocyanobilin (PCB) or biliverdin (BVD) from 300 nM to 20 μM for 1 h. Immediately before recording, NADPH (100 μM) and dark-adapted lucigenin (5 μM) were added to cell suspension. Light emission was recorded every minute for 20 min and was expressed as mean arbitrary light unit/min. Experiments were performed in triplicate. In experiments with inhibition of NAD(P)H oxidase, diphenylene iodonuim cloride (DPI, 10^−5 M), an inhibitor of NAD(P)H oxidase, was added 10 min before NADPH addition and recording of chemiluminescence. This is the first experiment to see the effect of purified phycocyanobilin on NADPH oxidase activity using human aortic endothelial cells.

NADPH oxidase [2] = assay: NADPH-induced superoxide production by cellular NADPH oxidase, lucigenin chemiluminescence, human aortic smooth muscle cells; format: cell-based; conditions: for inhibition of NADPH oxidase superoxide production: 300 nM to 20 μM for 1 h
Description: as §1, with “smooth muscle” for “endothelium”, “2A)” for “1A)”, “2B)” for “1B)”
as §2, with “aortic smooth muscle” for “aortic endothelial”, “The smooth muscle cells” for “The endothelial cell”, “in a Smooth Muscle Cell Growth Medium” for “in endothelial cell basal medium”, “(Clonetics) containing 5%” for “(Clonetics) supplemented with hFGF-B, VEGF, IGF-1, ascorbic acid hEGF, hydrocortisone and 2%”

NADPH oxidase [3] = assay: NADPH-induced superoxide production by cellular NADPH oxidase, lucigenin chemiluminescence, human renal mesangial cells; format: cell-based; conditions: for inhibition of NADPH oxidase superoxide production: 300 nM to 20 μM for 1 h
Description: as §1, with “renal mesangial tissue” for “aortic endothelium”, “3A)” for “1A)”, “3B)” for “1B)”
as §2, with “mesangial” for “aortic endothelial”, “[…] cells” for “endothelial cell”, “a Mesangial Cell Growth Medium” for “endothelial cell basal medium”, “containing 5%” for “supplemented with hFGF-B, VEGF, IGF-1, ascorbic acid hEGF, hydrocortisone and 2%”, “chemiluminescence.” for “chemiluminescence. This is the first experiment to see the effect of purified phycocyanobilin on NADPH oxidase activity using human aortic endothelial cells.”

[4] = compared with bilirubin; cited from earlier work
[5] = oral administration, compared with bilirubin; cited from earlier work
[6] = mice, concurrent administration; cited from earlier work
[7] = rats; cited from earlier work
[8] = oral, mice and rats, dose range 50-300 mg/kg/day; cited from earlier work
[9] = feeding to cholesterol-fed hamsters; cited from earlier work
[10] = mice, oral pre-treatment; cited from earlier work
[11] = DPI 10^−5 M added 10 min before NADPH (100 μM)

Compound: phycocyanobilin
- inhibition of NADPH oxidase superoxide production (NADPH oxidase [1]): dose-dependent inhibition
- inhibitory effect on NADPH oxidase activity compared with DPI (NADPH oxidase [1]; 20 μM): equivalent to that of DPI
- inhibition of NADPH oxidase superoxide production (NADPH oxidase [2]): dose-dependent inhibition
- inhibitory effect on NADPH oxidase activity compared with DPI (NADPH oxidase [2]; 20 μM): equivalent to that of DPI
- inhibition of NADPH oxidase superoxide production (NADPH oxidase [3]): dose-dependent inhibition
- inhibitory effect on NADPH oxidase activity compared with DPI (NADPH oxidase [3]; 20 μM): less than that of DPI, but was statistically significant

Compound: c1ccc2c(c1)[I+]c1ccccc1-2 [Diphenyleneiodonium, diphenylene iodonuim cloride]
- inhibition of the excess superoxide production induced by added NADPH (NADPH oxidase [1]; [11]): completely inhibit
- inhibition of the excess superoxide production induced by added NADPH (NADPH oxidase [2]; [11]): completely inhibit
- inhibition of the excess superoxide production induced by added NADPH (NADPH oxidase [3]; [11]): completely inhibit

Compound: C=CC1=C(C)/C(=C/C2=NC(=C\c3[nH]c(/C=C4\NC(=O)C(C)=C4C=C)c(C)c3CCC(=O)O)/C(CCC(=O)O)=C2C)NC1=O [biliverdin]
- inhibition of NADPH oxidase superoxide production (NADPH oxidase [1]): dose-dependent inhibition
- inhibition of NADPH oxidase superoxide production (NADPH oxidase [2]): dose-dependent inhibition
- inhibition of NADPH oxidase superoxide production (NADPH oxidase [3]): dose-dependent inhibition
- solubility [4]: far more soluble than bilirubin
- bioavailability [5]: greater bioavailability than bilirubin
- colitis induced with oral dextran sodium sulfate [6]: substantially ameliorated
- ischemia-reperfusion damage of transplanted organs [7]: ameliorates the ischemia-reperfusion damage
- rejection of cardiac or renal allografts [7]: helps to prevent the rejection

Compound: phycocyanin
- anti-inflammatory effects [8]: dose-dependent anti-inflammatory effects
- production of arterial fatty streaks [9]: inhibit the production of arterial fatty streaks quite markedly
- endotoxin-induced shock (severe hypotension and death) [10]: considerable ameliorated

— patent US8709434B2, “Compositions for inhibiting NADPH oxidase activity” (PCB Associates, Inc., priority 2006, dated 2014)
